According to EP0049683A2, “Imidazo-rifamycines, process for their preparation, pharmaceutical preparations containing them and their use” (CIBA-GEIGY AG, priority 1980, dated 1982):
Converted amounts (≈) assume the structure as drawn.

Key:
Assay in all cases: Agar dilution MIC in DST agar (Ericsson and Sherris)
Format in all cases: cell-based
[1] = system: Pseudomonas aeruginosa K 799/61; settings: for MIC: Pseudomonas aeruginosa, K799/61, read-out: MIC Pseu. 799; for MIC Pseu. 799: in vitro, agar dilution, DST agar
Text: (§1) Die antibiotische Aktivität der Testverbindungen in vitro wurde durch die Agarverdünnungsmethode nach Ericsson, H.M., und Sherris, S.C., 1971, Acta Path. Microb. Scand. Section B, Suppl. No. 217, Bd. 1-90, in DST Agara ermittelt. Die gefundenen, das Wachstum der Testorganismen noch hemmenden Minimalkonzentrationen (MIC = minimum inhibiting concentrations) werden in Mikrogramm pro Milliliter (µg/ml) für die geprüften Verbindungen in der Tabelle 1 angegeben.

Escherichia coli 205 = settings: for MIC: Escherichia coli, 205, in vitro, read-out: MIC Esch. 205; for MIC Esch. 205: in vitro
Text: as §1

Proteus morganii 1518 = settings: for MIC: Morganella morganii, 1518, in vitro, read-out: MIC Prot. 1518; for MIC Prot. 1518: in vitro
Text: as §1

Proteus morganii 2359 = settings: for MIC: Morganella morganii, 2359, in vitro, read-out: MIC Prot. 2359; for MIC Prot. 2359: in vitro
Text: as §1

[2] = system: Salmonella Typhimurium 277; settings: in vitro; for MIC: Salmonella enterica, TYPHIMURIUM, read-out: MIC Salm. 277
Text: as §1

[3] = system: Staphylococcus aureus 10B; settings: in vitro; for MIC: Staphylococcus aureus, 10B, read-out: MIC Staph. 10B
Text: as §1

Escherichia coli 2018 = settings: for MIC: Escherichia coli, 2018, in vitro, read-out: MIC Esch. 2018; for MIC Esch. 2018: in vitro
Text: as §1

Compound | MIC [1] [µg/mL] | MIC (Escherichia coli 205) [µg/mL] | MIC (Proteus morganii 1518) [µg/mL] | MIC (Proteus morganii 2359) [µg/mL] | MIC [2] [µg/mL] | MIC [3] [µg/mL] | MIC (Escherichia coli 2018) [µg/mL] | MIC Pseu. 799 [1] [µg/mL] | MIC Esch. 205 (Escherichia coli 205) [µg/mL] | MIC Prot. 1518 (Proteus morganii 1518) [µg/mL] | MIC Prot. 2359 (Proteus morganii 2359) [µg/mL] | MIC Staph. 10B [3] [µg/mL] | MIC Esch. 2018 (Escherichia coli 2018) [µg/mL] | MIC Salm. 277 [2] [µg/mL]
CO[C@H]1/C=C/O[C@@]2(C)Oc3c(C)c(O)c4c(O)c(c5nc(N6CCN(CC7CCCCCC7)CC6)[nH]c5c4c3C2=O)NC(=O)/C(C)=C\C=C\[C@H](C)[C@H](O)[C@@H](C)[C@@H](O)[C@@H](C)[C@H](OC(C)=O)[C@@H]1C [Verbindung 56] | 32 (≈ 34.9 µM) | 8 (≈ 8.73 µM) | 8 (≈ 8.73 µM) | 8 (≈ 8.73 µM) | 32 (≈ 34.9 µM) | 0.005 (≈ 0.00546 µM) | 8 (≈ 8.73 µM) |  |  |  |  |  |  | 
C=C(C)CN1CCN(c2nc3c([nH]2)c2c(O)c4c(O)c(C)c5c(c43)C(=O)[C@@](C)(O/C=C/[C@H](OC)[C@@H](C)[C@@H](OC(C)=O)[C@H](C)[C@H](O)[C@H](C)[C@@H](O)[C@@H](C)/C=C/C=C(/C)C(=O)N2)O5)CC1 [Verbindung 46, 4-[4-(2-Methyl-2-propenyl)-piperazinyl]-imidazolo[4,5-c]-rifamycin SV] | 32 (≈ 37.2 µM) | 32 (≈ 37.2 µM) | 8 (≈ 9.3 µM) | 8 (≈ 9.3 µM) | 32 (≈ 37.2 µM) |  | 8 (≈ 9.3 µM) |  |  |  |  |  |  | 
4-[4-(1-Ethylpropyl)-piperazinyl]-imidazolo[4,5-c]rifamycin SV [Verbindung 41] |  |  |  |  |  |  |  | 32 | 8 | 8 | 8 | 0.005 | 2 | 
CO[C@H]1/C=C/O[C@@]2(C)Oc3c(C)c(O)c4c(O)c(c5[nH]c(N6CCc7ccccc76)nc5c4c3C2=O)NC(=O)/C(C)=C\C=C\[C@H](C)[C@H](O)[C@@H](C)[C@@H](O)[C@@H](C)[C@H](OC(C)=O)[C@@H]1C [Verbindung 20, 4-Indolinyl-imidazolo[4,5-c]rifamycin SV] | 16 (≈ 19.1 µM) | 8 (≈ 9.54 µM) | 4 (≈ 4.77 µM) | 8 (≈ 9.54 µM) | 32 (≈ 38.1 µM) |  | 8 (≈ 9.54 µM) |  |  |  |  |  |  | 
4-(4-Isobutyl-2-methyl-piperazinyl)-imidazolo[4,5-c]rifamycin SV [Verbindung 75] |  |  |  |  |  |  |  | 32 | 8 | 2 | 8 | 0.01 | 8 | 32
4-(4-Heptylpiperazinyl)-imidazolo[4,5-c]rifamycin SV [Verbindung 36] |  |  |  |  |  |  |  | 8 | 2 | 8 | 8 |  | 8 | 32
CO[C@H]1/C=C/O[C@@]2(C)Oc3c(C)c(O)c4c(O)c(c5nc(N6CCN(C7CCCCC7)CC6)[nH]c5c4c3C2=O)NC(=O)/C(C)=C\C=C\[C@H](C)[C@H](O)[C@@H](C)[C@@H](O)[C@@H](C)[C@H](OC(C)=O)[C@@H]1C [Verbindung 51, 4-(4-Cyclohexylpiperazinyl)-imidazolo[4,5-c]rifamycin SV] | 8 (≈ 9.01 µM) | 8 (≈ 9.01 µM) | 8 (≈ 9.01 µM) | 8 (≈ 9.01 µM) | 32 (≈ 36 µM) | 0.01 (≈ 0.0113 µM) | 32 (≈ 36 µM) |  |  |  |  |  |  | 
4-(4-Hexylpiperazinyl)-imidazolo[4,5-c]rifamycin SV [Verbindung 35] |  |  |  |  |  |  |  | 8 | 8 | 8 | 8 |  | 8 | 32
4-(2,6-Dimethyl-morpholino)-imidazolo[4,5-c]rifamycin SV [Verbindung 29] |  |  |  |  |  |  |  | 8 | 32 | 8 | 8 |  | 32 | 128
4-(N-Butyl-N-methylamino)-imidazolo[4,5-c]rifamycin SV [Verbindung 9] |  |  |  |  |  |  |  | 8 | 8 | 1 | 8 |  | 8 | 32
CO[C@H]1/C=C/O[C@@]2(C)Oc3c(C)c(O)c4c(O)c(c5nc(N6CCN(c7ccccc7)CC6)[nH]c5c4c3C2=O)NC(=O)/C(C)=C\C=C\[C@H](C)[C@H](O)[C@@H](C)[C@@H](O)[C@@H](C)[C@H](OC(C)=O)[C@@H]1C [Verbindung 52, 4-(4-Phenylpiperazinyl)-imidazolo[4,5-c]rifamycin SV] | 32 (≈ 36.3 µM) | 32 (≈ 36.3 µM) | 8 (≈ 9.07 µM) | 8 (≈ 9.07 µM) | 32 (≈ 36.3 µM) |  | 8 (≈ 9.07 µM) |  |  |  |  |  |  | 
C=CCN1CCN(c2nc3c([nH]2)c2c(O)c4c(O)c(C)c5c(c43)C(=O)[C@@](C)(O/C=C/[C@H](OC)[C@@H](C)[C@@H](OC(C)=O)[C@H](C)[C@H](O)[C@H](C)[C@@H](O)[C@@H](C)/C=C/C=C(/C)C(=O)N2)O5)CC1 [Verbindung 44, 4-(4-Allylpiperazinyl)-imidazolo[4,5-c]rifamycin SV] | 32 (≈ 37.8 µM) | 8 (≈ 9.46 µM) | 8 (≈ 9.46 µM) | 8 (≈ 9.46 µM) | 32 (≈ 37.8 µM) |  | 8 (≈ 9.46 µM) |  |  |  |  |  |  | 
CCCC(C)CN1CCN(c2nc3c([nH]2)c2c(O)c4c(O)c(C)c5c(c43)C(=O)[C@@](C)(O/C=C/[C@H](OC)[C@@H](C)[C@@H](OC(C)=O)[C@H](C)[C@H](O)[C@H](C)[C@@H](O)[C@@H](C)/C=C/C=C(/C)C(=O)N2)O5)CC1 (some centres unmarked) [Verbindung 39, 4-[4-(2-Methylpentyl)-piperazinyl]-imidazolo[4,5-c]-rifamycin SV] | 32 (≈ 36 µM) | 8 (≈ 8.99 µM) | 8 (≈ 8.99 µM) | 8 (≈ 8.99 µM) | 32 (≈ 36 µM) |  | 8 (≈ 8.99 µM) |  |  |  |  |  |  | 
4-Thiomorpholino-imidazolo[4,5-c]rifamycin SV [Verbindung 30] |  |  |  |  |  |  |  | 32 | 8 | 8 | 8 |  | 8 | 32
CCN(CC)c1nc2c3c(O)c4c(O)c(C)c5c(c4c2[nH]1)C(=O)C(C)(OC=CC(OC)C(C)C(OC(C)=O)C(C)C(O)C(C)C(O)C(C)C=CC=C(C)C(=O)N3)O5 (centres unmarked) [Verbindung 6, 4-Diethylamino-imidazolo[4,5-c]rifamycin SV] | 128 (≈ 161 µM) | 128 (≈ 161 µM) | 128 (≈ 161 µM) | 128 (≈ 161 µM) | 128 (≈ 161 µM) |  | 128 (≈ 161 µM) |  |  |  |  |  |  | 
CCC(C)CCN1CCN(c2nc3c([nH]2)c2c(O)c4c(O)c(C)c5c(c43)C(=O)[C@@](C)(O/C=C/[C@H](OC)[C@@H](C)[C@@H](OC(C)=O)[C@H](C)[C@H](O)[C@H](C)[C@@H](O)[C@@H](C)/C=C/C=C(/C)C(=O)N2)O5)CC1 (some centres unmarked) [Verbindung 42, 4-[4-(3-Methylpentyl)-piperazinyl]-imidazolo[4,5-c]-rifamycin SV] | 32 (≈ 36 µM) | 8 (≈ 8.99 µM) | 8 (≈ 8.99 µM) | 8 (≈ 8.99 µM) | 32 (≈ 36 µM) | 0.005 (≈ 0.00562 µM) | 8 (≈ 8.99 µM) |  |  |  |  |  |  | 
4-(4-Isopropyloxycarbonylpiperazinyl)-imidazolo[4,5-c]-rifamycin SV [Verbindung 68] |  |  |  |  |  |  |  | 8 | 32 | 8 | 32 | 0.01 | 32 | 32
4-(4-Pentylpiperazinyl)-imidazolo[4,5-c]rifamycin SV [Verbindung 34] |  |  |  |  |  |  |  | 32 | 8 | 8 | 8 |  | 2 | 32
